Data from patent publication US11376259B2, “Targeted treatment of mature T-cell lymphoma” (Eli Lilly and Company, priority 2016, dated 2022).

Assays:
[1] = test system: AITL; assay: Clinical evaluation in patients with relapsed or refractory peripheral T-cell lymphoma (AITL patients); type: in vivo, human; conditions: cycle 1, oral capsules T.I.W., preliminary data
Excerpt: (§1) A study of 4,4,4-Trifluoro-N-[(1S)-2-[[(7S)-5-(2-hydroxyethyl)-6-oxo-7H-pyrido[2,3-d][3]benzazepin-7-yl]amino]-1-methyl-2-oxo-ethyl]butanamide hydrate in patients with advanced or metastatic cancer.
(§2) This study is a multicenter, nonrandomized, open-label, dose-escalation study followed by cohort expansion of oral dosed 4,4,4-trifluoro-N-[(1S)-2-[[(7S)-5-(2-hydroxyethyl)-6-oxo-7H-pyrido[2,3-d][3]benzazepin-7-yl]amino]-1-methyl-2-oxo-ethyl]butanamide hydrate in outpatients with advanced or metastatic cancer.
Cohort expansion of oral 4,4,4-trifluoro-N-[(1S)-2-[[(7S)-5-(2-hydroxyethyl)-6-oxo-7H-pyrido[2,3-d][3]benzazepin-7-yl]amino]-1-methyl-2-oxo-ethyl]butanamide hydrate in outpatients with advanced or metastatic cancer. Patients will be entered based on screened molecular alterations related to the Notch pathway. Patients initially dosed with 75 mg/dose administered T.I.W. are dose-reduced to 50 mg/dose administered T.I.W. […]
(§3) Efficacy: Efficacy will be assessed using Response Evaluation Criteria in Solid Tumors (RECIST) v1.1 or using the Cheson et al., J. Clin. Oncol., 2007, 25(5): 579-586, response criteria for lymphoma. Each patient will be assessed by 1 or more of the following radiologic tests for tumor measurement: X-ray computerized tomography (CT) scan; magnetic resonance imaging (MRI); chest X-ray; positron emission tomography (PET) scan; dynamic contrast enhanced-magnetic resonance imaging (DCE-MRI); PET/CT imaging Standardized Uptake Values (SUVMAX); Dynamic Contrast-Enhanced Ultrasonography (DCE-US).
Each patient's full extent of disease will also be assessed with: applicable tumor measurement by RECIST 1.1 (Eisenhauer et al., Eur J Cancer. 2009, 45(2): 228-247); Cheson et al., J. Clin. Oncol., 2007, 25(5): 579-586; and Choi et al., J Clin Oncol. […] To confirm objective responses, all lesions should be radiologically assessed, and the same radiologic method used for the initial response determination should be repeated at least 4 weeks following the initial observation of an objective response, using the sample method that was used at baseline. […]

[2] = test system: PTCL-NOS; assay: Clinical evaluation in patients with relapsed or refractory peripheral T-cell lymphoma (PTCL-NOS patient); type: in vivo, human; conditions: Patient 3, PTCL-NOS, cycle 1, oral capsules T.I.W., preliminary data
Excerpt: as §1
as §2, with “cancer. […]” for “cancer.”
as §3
Each patient's full extent of disease will also be assessed with: applicable tumor measurement by RECIST 1.1 (Eisenhauer et al., Eur J Cancer. 2009, 45(2): 228-247); Cheson et al., J. Clin. Oncol., 2007, 25(5): 579-586; and Choi et al., J Clin Oncol. […]

[3] = Atropisomer equilibrium in solution by 1H NMR and LC-MS; type: physicochemical; conditions: ambient temperature, after 24 hours
Experimental: In aqueous solutions, 8-9% of atropisomer 2 (minor atropisomer) is detected by ^1H NMR and LC-MS in equilibrium with atropisomer 1 (major atropisomer) at ambient temperature after 24 hours. In organic solvents, at ambient temperature after 24 hours, approximately 1-2% of atropisomer 2 is detected by ^1H NMR and LC-MS in equilibrium with atropisomer 1. Although detectable by ^1H NMR and LC-MS analysis, atropisomer 2 is not isolable.

atropisomer 2 (minor atropisomer) detected in equilibrium with atropisomer 1 ([3]; aqueous solutions) | atropisomer 2 (minor atropisomer) detected in equilibrium with atropisomer 1 ([3]; organic solvents) | SMILES | CT Scan assessment: Tumor decrease ([1]; Patient 1, AITL) | PET Scan (response) ([1]; Patient 1, AITL) | CT Scan assessment: Tumor decrease ([1]; Patient 2, AITL) | CT Scan assessment [2] | Other assessments: Abnormal T cells [2]
 |  | C[C@H](NC(=O)CCC(F)(F)F)C(=O)N[C@@H]1C(=O)N(CCO)c2ncccc2-c2ccccc21 [4,4,4-trifluoro-N-[(1S)-2-[[(7S)-5-(2-hydroxyethyl)-6-oxo-7H-pyrido[2,3-d][3]benzazepin-7-yl]amino]-1-methyl-2-oxo-ethyl]butanamide hydrate] | of 80% | Partial | of 20% | Stable | Decrease of
8-9% | 1-2% | C[C@H](NC(=O)CCC(F)(F)F)C(=O)N[C@@H]1C(=O)N(CCO)c2ncccc2-c2ccccc21 [Compound 1, 4,4,4-trifluoro-N-[(1S)-2-[[(7S)-5-(2-hydroxyethyl)-6-oxo-7H-pyrido[2,3-d][3]benzazepin-7-yl]amino]-1-methyl-2-oxo-ethyl]butanamide] |  |  |  |  | 
